The record followed here is ChEMBL document CHEMBL5465560, “Selectivity Literature for EUbOPEN Chemogenomic Library” (2024).

The target of assay [1] is Macrophage-stimulating protein receptor (Homo sapiens, UniProt Q04912). The assay is described as follows: Selectivity interaction (Kinase panel (Z-LYTE Assay)) EUB0001632a MST1R. Particulars: at 10 µM.
For assay [2], the target named is Endothelin receptor type B (Homo sapiens) (UniProt P24530). Put plainly: Selectivity interaction (Eurofins CEREP Diversity Profile (receptors and ion channels)) EUB0000279b EDNRB. Particulars: at 10 µM.
Assay [3] addresses Mitogen-activated protein kinase 6 (Homo sapiens) (UniProt Q16659). The assay is described as follows: Selectivity interaction (KinomeScan (DiscoverX)) EUB0000607a MAPK6. Particulars: at 10 µM.
For assay [4], the target named is T1, Mitogen-activated protein kinase kinase kinase kinase 2 (Homo sapiens) (UniProt Q12851).
T1 sequence (whole entry): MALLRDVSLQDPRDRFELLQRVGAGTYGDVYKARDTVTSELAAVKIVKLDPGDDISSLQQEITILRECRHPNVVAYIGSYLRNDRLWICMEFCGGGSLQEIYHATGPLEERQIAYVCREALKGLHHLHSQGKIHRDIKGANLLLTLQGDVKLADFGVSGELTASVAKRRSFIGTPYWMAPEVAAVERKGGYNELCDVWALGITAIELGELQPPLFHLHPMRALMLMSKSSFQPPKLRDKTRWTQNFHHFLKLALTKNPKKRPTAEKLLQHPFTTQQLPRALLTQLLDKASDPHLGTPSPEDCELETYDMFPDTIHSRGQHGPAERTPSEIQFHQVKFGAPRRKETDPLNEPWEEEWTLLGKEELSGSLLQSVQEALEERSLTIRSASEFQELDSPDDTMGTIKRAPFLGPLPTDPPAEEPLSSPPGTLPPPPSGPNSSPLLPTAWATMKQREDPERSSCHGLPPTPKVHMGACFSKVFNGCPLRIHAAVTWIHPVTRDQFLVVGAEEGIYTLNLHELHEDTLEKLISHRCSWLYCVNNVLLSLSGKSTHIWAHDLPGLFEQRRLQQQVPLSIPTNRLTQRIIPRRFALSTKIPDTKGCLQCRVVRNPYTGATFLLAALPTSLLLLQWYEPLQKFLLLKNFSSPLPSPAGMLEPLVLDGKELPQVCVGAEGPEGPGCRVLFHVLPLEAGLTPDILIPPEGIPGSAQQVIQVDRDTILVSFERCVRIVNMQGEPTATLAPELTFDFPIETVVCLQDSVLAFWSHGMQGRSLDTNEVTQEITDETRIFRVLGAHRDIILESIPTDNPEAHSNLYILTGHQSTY
The settings on record: at 10 µM.

The target of assay [5] is Epithelial discoidin domain-containing receptor 1 (Homo sapiens) (UniProt Q08345). The assay is described as follows: Selectivity interaction (KinomeScan (DiscoverX)) EUB0001049a DDR1. Particulars: at 1 µM.
Assay [6] relates to Tyrosine-protein kinase ABL1 (Homo sapiens), P00519 [T315I]. Put plainly: Selectivity interaction (KinomeScan (DiscoverX)) EUB0000655a ABL1. Particulars: at 10 µM.
The target in assay [7] is T2, Muscle, skeletal receptor tyrosine-protein kinase (Homo sapiens) (UniProt O15146).
T2 sequence (whole entry): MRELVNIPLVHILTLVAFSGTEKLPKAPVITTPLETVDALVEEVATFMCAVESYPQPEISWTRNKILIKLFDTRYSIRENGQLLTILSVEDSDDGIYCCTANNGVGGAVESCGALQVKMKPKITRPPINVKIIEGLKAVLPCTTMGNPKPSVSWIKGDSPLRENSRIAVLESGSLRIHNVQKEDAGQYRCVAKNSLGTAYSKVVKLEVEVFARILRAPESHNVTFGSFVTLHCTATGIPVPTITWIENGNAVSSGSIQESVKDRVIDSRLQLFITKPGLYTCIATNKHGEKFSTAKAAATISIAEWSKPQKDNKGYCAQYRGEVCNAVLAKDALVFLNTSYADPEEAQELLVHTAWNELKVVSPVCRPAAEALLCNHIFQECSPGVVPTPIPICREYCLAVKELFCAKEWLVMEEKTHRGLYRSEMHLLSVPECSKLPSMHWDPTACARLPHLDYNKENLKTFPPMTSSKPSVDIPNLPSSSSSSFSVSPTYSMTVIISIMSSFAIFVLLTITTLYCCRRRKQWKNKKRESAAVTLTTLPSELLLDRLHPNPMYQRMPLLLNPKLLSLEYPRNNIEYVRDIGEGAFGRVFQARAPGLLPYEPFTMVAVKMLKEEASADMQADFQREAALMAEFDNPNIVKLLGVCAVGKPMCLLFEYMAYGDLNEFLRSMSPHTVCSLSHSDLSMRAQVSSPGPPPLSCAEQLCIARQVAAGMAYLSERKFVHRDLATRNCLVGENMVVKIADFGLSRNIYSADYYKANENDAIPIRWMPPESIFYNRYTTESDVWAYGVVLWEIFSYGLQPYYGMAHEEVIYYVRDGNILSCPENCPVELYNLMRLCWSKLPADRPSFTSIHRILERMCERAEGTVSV
The assay is described as follows: Selectivity interaction (KinomeScan (DiscoverX)) EUB0001079a MUSK. The settings on record: at 1 µM.

The target of assay [8] is T3, Myosin light chain kinase (Homo sapiens) (UniProt Q32MK0).
T3 sequence (whole entry): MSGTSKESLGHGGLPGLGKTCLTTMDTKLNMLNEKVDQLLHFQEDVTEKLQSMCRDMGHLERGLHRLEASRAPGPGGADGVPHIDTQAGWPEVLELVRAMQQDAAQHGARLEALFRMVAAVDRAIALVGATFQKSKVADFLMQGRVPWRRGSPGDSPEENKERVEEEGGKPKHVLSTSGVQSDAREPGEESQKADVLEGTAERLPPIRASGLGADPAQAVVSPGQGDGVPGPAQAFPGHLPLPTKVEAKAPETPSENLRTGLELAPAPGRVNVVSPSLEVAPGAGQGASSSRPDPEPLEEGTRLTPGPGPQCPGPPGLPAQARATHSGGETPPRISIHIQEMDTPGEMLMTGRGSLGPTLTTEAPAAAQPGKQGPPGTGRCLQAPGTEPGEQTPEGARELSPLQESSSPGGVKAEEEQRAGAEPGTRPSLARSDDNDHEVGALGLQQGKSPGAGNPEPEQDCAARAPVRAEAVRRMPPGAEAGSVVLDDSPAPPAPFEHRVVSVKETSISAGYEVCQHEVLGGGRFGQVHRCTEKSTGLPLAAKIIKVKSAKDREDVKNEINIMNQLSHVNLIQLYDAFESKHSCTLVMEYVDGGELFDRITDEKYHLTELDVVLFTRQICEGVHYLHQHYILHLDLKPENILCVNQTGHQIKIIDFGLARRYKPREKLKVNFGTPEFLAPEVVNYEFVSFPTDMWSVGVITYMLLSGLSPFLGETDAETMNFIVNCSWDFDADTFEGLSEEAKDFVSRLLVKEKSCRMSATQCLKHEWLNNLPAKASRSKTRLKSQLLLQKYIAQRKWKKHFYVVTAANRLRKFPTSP
Put plainly: Selectivity interaction (KinomeScan (DiscoverX)) EUB0000229b MYLK3. The settings on record: at 10 µM.

Chain of Mitogen-activated protein kinase 6 (Homo sapiens) (Q16659 whole entry): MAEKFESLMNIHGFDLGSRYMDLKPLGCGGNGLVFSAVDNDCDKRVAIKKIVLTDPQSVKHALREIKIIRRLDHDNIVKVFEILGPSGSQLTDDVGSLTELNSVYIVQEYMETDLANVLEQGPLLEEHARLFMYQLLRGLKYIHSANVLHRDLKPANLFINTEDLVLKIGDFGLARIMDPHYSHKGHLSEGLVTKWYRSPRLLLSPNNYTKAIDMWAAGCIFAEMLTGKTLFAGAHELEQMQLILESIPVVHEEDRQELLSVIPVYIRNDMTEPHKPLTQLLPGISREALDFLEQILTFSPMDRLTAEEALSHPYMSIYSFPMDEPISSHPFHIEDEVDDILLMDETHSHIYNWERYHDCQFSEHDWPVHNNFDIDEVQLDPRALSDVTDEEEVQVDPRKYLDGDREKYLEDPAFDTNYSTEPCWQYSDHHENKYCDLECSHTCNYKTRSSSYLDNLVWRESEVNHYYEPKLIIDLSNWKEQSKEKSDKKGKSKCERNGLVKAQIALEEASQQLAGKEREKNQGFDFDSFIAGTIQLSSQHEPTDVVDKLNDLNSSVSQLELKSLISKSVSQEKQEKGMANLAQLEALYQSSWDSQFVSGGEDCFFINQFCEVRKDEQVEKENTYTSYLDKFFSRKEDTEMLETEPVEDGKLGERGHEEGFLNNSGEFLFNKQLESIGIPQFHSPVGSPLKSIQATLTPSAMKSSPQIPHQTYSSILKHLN
Chain of Endothelin receptor type B (Homo sapiens) (P24530 whole entry): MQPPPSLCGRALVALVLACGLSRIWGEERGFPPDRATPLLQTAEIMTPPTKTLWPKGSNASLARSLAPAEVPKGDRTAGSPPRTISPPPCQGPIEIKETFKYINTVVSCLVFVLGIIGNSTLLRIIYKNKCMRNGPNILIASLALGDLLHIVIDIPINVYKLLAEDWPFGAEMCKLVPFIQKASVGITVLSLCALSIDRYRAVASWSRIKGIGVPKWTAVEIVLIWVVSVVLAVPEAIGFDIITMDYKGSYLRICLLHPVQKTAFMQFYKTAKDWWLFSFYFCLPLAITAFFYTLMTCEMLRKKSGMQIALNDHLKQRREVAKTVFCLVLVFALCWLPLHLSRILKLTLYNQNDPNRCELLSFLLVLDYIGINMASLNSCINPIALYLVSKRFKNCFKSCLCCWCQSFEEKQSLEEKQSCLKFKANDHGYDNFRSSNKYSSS
Chain of Epithelial discoidin domain-containing receptor 1 (Homo sapiens) (Q08345 whole entry, the tested form may be a part): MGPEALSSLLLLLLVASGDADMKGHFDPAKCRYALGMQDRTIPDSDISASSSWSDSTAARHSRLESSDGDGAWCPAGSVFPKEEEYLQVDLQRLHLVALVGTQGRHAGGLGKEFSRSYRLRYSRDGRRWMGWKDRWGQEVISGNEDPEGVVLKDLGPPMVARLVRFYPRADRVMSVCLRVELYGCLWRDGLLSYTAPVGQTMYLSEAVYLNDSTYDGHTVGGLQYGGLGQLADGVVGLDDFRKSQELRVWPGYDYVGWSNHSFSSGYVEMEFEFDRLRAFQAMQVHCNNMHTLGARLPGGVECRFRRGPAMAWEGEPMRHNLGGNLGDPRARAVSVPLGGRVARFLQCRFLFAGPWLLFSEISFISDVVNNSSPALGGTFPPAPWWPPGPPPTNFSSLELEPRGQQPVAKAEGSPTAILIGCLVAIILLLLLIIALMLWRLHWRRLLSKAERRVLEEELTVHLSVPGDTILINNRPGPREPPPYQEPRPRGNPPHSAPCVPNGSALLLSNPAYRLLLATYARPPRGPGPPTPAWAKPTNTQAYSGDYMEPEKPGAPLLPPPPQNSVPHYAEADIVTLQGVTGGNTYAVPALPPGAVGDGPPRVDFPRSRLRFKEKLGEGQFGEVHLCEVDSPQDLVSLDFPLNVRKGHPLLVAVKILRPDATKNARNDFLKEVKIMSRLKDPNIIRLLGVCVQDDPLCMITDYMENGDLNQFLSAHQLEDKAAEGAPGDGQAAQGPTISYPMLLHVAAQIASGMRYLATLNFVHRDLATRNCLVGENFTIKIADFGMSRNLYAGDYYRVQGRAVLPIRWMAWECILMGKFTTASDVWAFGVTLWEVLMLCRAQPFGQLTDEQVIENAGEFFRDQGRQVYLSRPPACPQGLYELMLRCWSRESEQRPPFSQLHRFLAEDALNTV
Chain of Macrophage-stimulating protein receptor (Q04912 25-304 limits assumed): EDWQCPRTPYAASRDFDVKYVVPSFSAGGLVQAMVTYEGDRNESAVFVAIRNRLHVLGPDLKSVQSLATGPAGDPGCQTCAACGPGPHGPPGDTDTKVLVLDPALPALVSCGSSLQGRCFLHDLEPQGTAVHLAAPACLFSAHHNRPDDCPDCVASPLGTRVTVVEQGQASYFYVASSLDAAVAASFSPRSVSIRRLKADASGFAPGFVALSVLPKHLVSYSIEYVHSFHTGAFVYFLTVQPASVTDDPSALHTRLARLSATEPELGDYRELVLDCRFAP
Chain of Macrophage-stimulating protein receptor (Q04912 310-1400 limits assumed): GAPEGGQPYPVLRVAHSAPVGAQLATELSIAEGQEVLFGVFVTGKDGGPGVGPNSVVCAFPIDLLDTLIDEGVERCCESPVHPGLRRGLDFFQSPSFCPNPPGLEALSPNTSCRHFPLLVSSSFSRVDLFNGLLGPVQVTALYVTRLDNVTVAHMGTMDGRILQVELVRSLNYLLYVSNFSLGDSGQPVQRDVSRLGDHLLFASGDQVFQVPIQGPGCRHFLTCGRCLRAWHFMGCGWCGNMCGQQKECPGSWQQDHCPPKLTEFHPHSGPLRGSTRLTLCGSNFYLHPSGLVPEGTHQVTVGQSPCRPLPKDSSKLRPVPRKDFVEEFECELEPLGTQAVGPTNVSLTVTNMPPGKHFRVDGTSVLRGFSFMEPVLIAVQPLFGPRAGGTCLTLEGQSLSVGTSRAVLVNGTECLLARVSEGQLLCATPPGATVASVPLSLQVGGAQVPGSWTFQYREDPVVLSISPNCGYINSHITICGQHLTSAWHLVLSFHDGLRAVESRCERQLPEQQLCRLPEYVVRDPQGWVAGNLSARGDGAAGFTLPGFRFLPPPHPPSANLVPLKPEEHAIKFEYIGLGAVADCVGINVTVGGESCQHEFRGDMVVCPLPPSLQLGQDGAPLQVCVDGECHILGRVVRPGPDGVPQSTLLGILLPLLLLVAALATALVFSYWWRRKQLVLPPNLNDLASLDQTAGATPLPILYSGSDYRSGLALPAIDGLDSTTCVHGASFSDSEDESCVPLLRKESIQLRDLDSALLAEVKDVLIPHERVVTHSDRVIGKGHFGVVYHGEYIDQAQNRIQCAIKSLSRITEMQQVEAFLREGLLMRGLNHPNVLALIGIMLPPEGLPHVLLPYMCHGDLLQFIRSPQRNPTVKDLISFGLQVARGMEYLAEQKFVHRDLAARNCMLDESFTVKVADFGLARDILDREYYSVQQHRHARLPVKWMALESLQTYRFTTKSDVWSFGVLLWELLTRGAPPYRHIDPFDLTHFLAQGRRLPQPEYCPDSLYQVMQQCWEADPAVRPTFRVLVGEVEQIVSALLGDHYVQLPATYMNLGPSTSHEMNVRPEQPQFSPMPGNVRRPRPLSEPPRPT

With `Cn1cc(-n2cnc3c(NCc4nc5cc(Cl)c(Cl)cc5[nH]4)nc(N4CCOCC4)nc32)cn1`, the % of control in assay [1] is -2.62%.

As to `CC(=O)c1cc(-c2ccccc2OCC2CC2)c2ncccn12`, the % of control in assay [2] was 84%.

For the compound `CNC(=O)Nc1ccc(-c2nc(N3CC4CCC(C3)O4)c3cnn(C4CCC5(CC4)OCCO5)c3n2)cc1`, the % of control in assay [3] came out at 85%.

On to `Cc1cc([C@@H](C)Nc2ccccc2C(=O)O)c2nc(N3CCOCC3)cc(=O)n2c1` [AZD-6482], for which the % of control in assay [4] came to 56%.

As for `COc1cc(Nc2nc(C)cc(-c3cnn4nc(OC)ccc34)n2)cc(C(F)(F)F)c1`, the % of control in assay [5] is 99%.

`CN(C)CCOc1ccc(-c2nc(-c3ccncc3)c(-c3ccc4c(c3)CC/C4=N\O)[nH]2)cc1`: in assay [6], the % of control came out at 5.4%.

In the case of `Nc1cnc(N2CCc3cc(S(=O)(=O)Nc4c(F)cc(Cl)cc4F)cc(N4CCCC4=O)c32)nc1` [TP-020n], the % of control in assay [7] was 100%.

For the compound `COc1cc(N(C)c2ccnc3ccc(C(F)(F)F)cc23)cc(OC)c1OC`, the % binding in assay [8] worked out at 100%.
